Target: T1, human MAGL (His-hMAGL) (Homo sapiens, UniProt Q99685)
T1 construct: made in house; host or cells: Escherichia coli BL21(DE3)
T1 sequence (Q99685 1-303): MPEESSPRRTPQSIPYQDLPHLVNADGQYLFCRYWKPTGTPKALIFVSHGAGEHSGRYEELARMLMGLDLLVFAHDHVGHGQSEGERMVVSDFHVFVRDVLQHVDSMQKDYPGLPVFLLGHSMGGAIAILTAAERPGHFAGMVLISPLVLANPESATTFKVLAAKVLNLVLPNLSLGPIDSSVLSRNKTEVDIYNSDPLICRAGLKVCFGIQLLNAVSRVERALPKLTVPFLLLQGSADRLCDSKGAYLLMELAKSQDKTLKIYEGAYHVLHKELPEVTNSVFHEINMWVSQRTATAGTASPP
Experiment: Measurement of MAGL inhibitory activity by mass spectrometry
Format: biochemical
Conditions: substrate 2-arachidonylglycerol
Description: Thereafter, to each well was added 150 μM 2-arachidonylglycerol (Tocris Bioscience) by 5 μL, and the mixture was incubated at room temperature for 10 min. Then, 2% formic acid (Wako Pure Chemical Industries, Ltd.) was added by 10 μL to discontinue the reaction. Furthermore, acetonitrile (50 μL) containing 3 μM arachidonic acid-d8 (Cayman Chemical Company) was added and the mixture was stirred. The amount of arachidonic acid in the obtained enzyme reaction mixture was calculated by measuring by RapidFire-mass spectrometry and correcting by the amount of arachidonic acid-d8. High Throughput online solid phase extraction was performed using RapidFire 300TM system (Agilent Technologies, Inc.). […] The injection needle was washed with ultrapure water (500 millisecond) and acetonitrile (500 millisecond) to minimize carry-over. […] The RapidFire300 system was controlled by RapidFire UI software version 3.6 (Agilent Technologies, Inc.). The mass spectrometry of the resultant product was performed using […] triple quadrupole mass spectrometer (AB SCIEX) equipped with an electrospray ion sauce (Turbolon SprayTM) in a negative selected reaction monitoring (SRM) mode. The conditions of SRM are shown below. The parameters of the instrument were optimized as follows: capillary temperature 600° C., ion spray voltage -4.5 kV, collision gas 8, curtain gas 15 psi, ion source gas 1 60 psi, ion source gas 2 60 psi. The mass spectrometer was controlled by AnalystTM software version 1.5.1 (AB SCIEX). The peak area integration was analyzed using RapidFire integrator software version 3.6 (Agilent Technologies, Inc.). MAGL inhibitory rate (%) was calculated according to the following calculation formula.

[1] = 10 μM test compound, arachidonic acid by RapidFire-mass spectrometry
[2] = MAGL inhibitory rate, test compound 10 μM, His-hMAGL, RapidFire-mass spectrometry

| SMILES | inhibition at 10 µM [1] [%] | inhibition at 10 µM [2] [%] |
| --- | --- | --- |
| CCn1nccc1-c1cccc(N2CC(N3CCN(C(=O)c4nccs4)CC3)CC2=O)c1 (stereo not drawn) [Example 156, 1-(3-(1-ethyl-1H-pyrazol-5-yl)phenyl)-4-(4-(1,3-thiazol-2-ylcarbonyl)piperazin-1-yl)pyrrolidin-2-one] | 100 |  |
| Cc1cc(-c2cccc(N3CC(N4CCN(C(=O)c5nccs5)CC4)CC3=O)c2)n(C)n1 (stereo not drawn) [Example 157, 1-(3-(1,3-dimethyl-1H-pyrazol-5-yl)phenyl)-4-(4-(1,3-thiazol-2-ylcarbonyl)piperazin-1-yl)pyrrolidin-2-one] | 99 |  |
| Cn1nc(C(F)(F)F)cc1-c1cccc(N2CC(N3CCN(C(=O)c4nccs4)CC3)CC2=O)c1 (stereo not drawn) [Example 158, 1-(3-(1-methyl-3-(trifluoromethyl)-1H-pyrazol-5-yl)phenyl)-4-(4-(1,3-thiazol-2-ylcarbonyl)piperazin-1-yl)pyrrolidin-2-one] | 99 |  |
| O=C(c1nccs1)N1CCN(C2CC(=O)N(c3ccccc3)C2)CC1 (stereo not drawn) [Example 160, 1-phenyl-4-(4-(1,3-thiazol-2-ylcarbonyl)piperazin-1-yl)pyrrolidin-2-one] | 91 |  |
| Cc1nc(C)c(-c2cccc(N3CC(N4CCN(C(=O)c5nccs5)CC4)CC3=O)c2)s1 (stereo not drawn) [Example 161, 1-(3-(2,4-dimethyl-1,3-thiazol-5-yl)phenyl)-4-(4-(1,3-thiazol-2-ylcarbonyl)piperazin-1-yl)pyrrolidin-2-one] | 100 |  |
| Cc1ccsc1-c1cccc(N2CC(N3CCN(C(=O)c4nccs4)CC3)CC2=O)c1 (stereo not drawn) [Example 162, 1-(3-(3-methyl-2-thienyl)phenyl)-4-(4-(1,3-thiazol-2-ylcarbonyl)piperazin-1-yl)pyrrolidin-2-one] | 99 |  |
| O=C(c1nccs1)N1CCN(C2CC(=O)N(c3cccc(-c4ncccc4C(F)(F)F)c3)C2)CC1 (stereo not drawn) [Example 165, 4-(4-(1,3-thiazol-2-ylcarbonyl)piperazin-1-yl)-1-(3-(3-(trifluoromethyl)pyridin-2-yl)phenyl)pyrrolidin-2-one] | 100 |  |
| O=C(c1ncco1)N1CCN(C2CC(=O)N(c3cccc(-c4ccccc4Cl)c3)C2)CC1 (stereo not drawn) [Example 166, 1-(2′-chlorobiphenyl-3-yl)-4-(4-(1,3-oxazol-2-ylcarbonyl)piperazin-1-yl)pyrrolidin-2-one] | 99 |  |
| Cc1ncccc1-c1cccc(N2CC(N3CCN(C(=O)c4ncco4)CC3)CC2=O)c1 (stereo not drawn) [Example 167, 1-(3-(2-methylpyridin-3-yl)phenyl)-4-(4-(1,3-oxazol-2-ylcarbonyl)piperazin-1-yl)pyrrolidin-2-one] | 94 |  |
| O=C(c1cscn1)N1CCN(C2CC(=O)N(c3cccc(-c4ccccc4Cl)c3)C2)CC1 (stereo not drawn) [Example 168, 1-(2′-chlorobiphenyl-3-yl)-4-(4-(1,3-thiazol-4-ylcarbonyl)piperazin-1-yl)pyrrolidin-2-one] | 101 |  |
| Cc1ncccc1-c1cccc(N2CC(N3CCN(C(=O)c4cscn4)CC3)CC2=O)c1 (stereo not drawn) [Example 169, 1-(3-(2-methylpyridin-3-yl)phenyl)-4-(4-(1,3-thiazol-4-ylcarbonyl)piperazin-1-yl)pyrrolidin-2-one] | 97 |  |
| O=C(c1nccs1)N1CCN(C2CC(=O)N(c3ccc(F)c(Br)c3)C2)CC1 (stereo not drawn) [Example 170, 1-(3-bromo-4-fluorophenyl)-4-(4-(1,3-thiazol-2-ylcarbonyl)piperazin-1-yl)pyrrolidin-2-one] | 98 |  |
| CC(C)n1nccc1-c1cccc(N2CC(N3CCN(C(=O)c4nccs4)CC3)CC2=O)c1 (stereo not drawn) [Example 171, 1-(3-(1-isopropyl-1H-pyrazol-5-yl)phenyl)-4-(4-(1,3-thiazol-2-ylcarbonyl)piperazin-1-yl)pyrrolidin-2-one] | 99 |  |
| Cc1ncccc1-c1cccc(N2CC(N3CCN(C(=O)c4nccs4)CC3)CC2=O)n1 (stereo not drawn) [Example 174, 1-(2′-methyl-2,3′-bipyridin-6-yl)-4-(4-(1,3-thiazol-2-ylcarbonyl)piperazin-1-yl)pyrrolidin-2-one] | 100 |  |
| Cc1ccccc1-c1ccc(N2CC(N3CCN(C(=O)c4nccs4)CC3)CC2=O)cc1 (stereo not drawn) [Example 176, 1-(2′-methylbiphenyl-4-yl)-4-(4-(1,3-thiazol-2-ylcarbonyl)piperazin-1-yl)pyrrolidin-2-one] | 100 |  |
| Cc1ccncc1-c1ccc(N2CC(N3CCN(C(=O)c4nccs4)CC3)CC2=O)cc1 (stereo not drawn) [Example 177, 1-(4-(4-methylpyridin-3-yl)phenyl)-4-(4-(1,3-thiazol-2-ylcarbonyl)piperazin-1-yl)pyrrolidin-2-one] | 80 |  |
| Cc1cnccc1-c1ccc(N2CC(N3CCN(C(=O)c4nccs4)CC3)CC2=O)cc1 (stereo not drawn) [Example 178, 1-(4-(3-methylpyridin-4-yl)phenyl)-4-(4-(1,3-thiazol-2-ylcarbonyl)piperazin-1-yl)pyrrolidin-2-one] | 81 |  |
| O=C(c1nccs1)N1CCN(C2CC(=O)N(c3ccc(-c4ccccc4F)cc3)C2)CC1 (stereo not drawn) [Example 179, 1-(2′-fluorobiphenyl-4-yl)-4-(4-(1,3-thiazol-2-ylcarbonyl)piperazin-1-yl)pyrrolidin-2-one] |  | 98 |
| Cc1cc(-c2ccc(N3CC(N4CCN(C(=O)c5nccs5)CC4)CC3=O)cc2)n(C)n1 (stereo not drawn) [Example 180, 1-(4-(1,3-dimethyl-1H-pyrazol-5-yl)phenyl)-4-(4-(1,3-thiazol-2-ylcarbonyl)piperazin-1-yl)pyrrolidin-2-one] |  | 94 |
| Cc1nn(C)cc1-c1ccc(N2CC(N3CCN(C(=O)c4nccs4)CC3)CC2=O)cc1 (stereo not drawn) [Example 181, 1-(4-(1,3-dimethyl-1H-pyrazol-4-yl)phenyl)-4-(4-(1,3-thiazol-2-ylcarbonyl)piperazin-1-yl)pyrrolidin-2-one] |  | 94 |
| Cc1c(-c2ccc(N3CC(N4CCN(C(=O)c5nccs5)CC4)CC3=O)cc2)cnn1C (stereo not drawn) [Example 182, 1-(4-(1,5-dimethyl-1H-pyrazol-4-yl)phenyl)-4-(4-(1,3-thiazol-2-ylcarbonyl)piperazin-1-yl)pyrrolidin-2-one] |  | 92 |
| O=C(c1nccs1)N1CCN(C2CC(=O)N(c3ccc(-c4ccoc4)cc3)C2)CC1 (stereo not drawn) [Example 184, 1-(4-(3-furyl)phenyl)-4-(4-(1,3-thiazol-2-ylcarbonyl)piperazin-1-yl)pyrrolidin-2-one] |  | 98 |
| N#Cc1cccc(-c2ccc(N3CC(N4CCN(C(=O)c5nccs5)CC4)CC3=O)cc2)c1 (stereo not drawn) [Example 185, 4′-(2-oxo-4-(4-(1,3-thiazol-2-ylcarbonyl)piperazin-1-yl)pyrrolidin-1-yl)biphenyl-3-carbonitrile] |  | 100 |
| O=C(c1nccs1)N1CCN(C2CC(=O)N(c3ccc(-c4cccc(CO)c4)cc3)C2)CC1 (stereo not drawn) [Example 187, 1-(3′-(hydroxymethyl)biphenyl-4-yl)-4-(4-(1,3-thiazol-2-ylcarbonyl)piperazin-1-yl)pyrrolidin-2-one] |  | 96 |
| O=C(c1nccs1)N1CCN(C2CC(=O)N(c3ccc(-c4ccccc4Cl)cc3)C2)CC1 (stereo not drawn) [Example 188, 1-(2′-chlorobiphenyl-4-yl)-4-(4-(1,3-thiazol-2-ylcarbonyl)piperazin-1-yl)pyrrolidin-2-one] |  | 99 |
| Cc1nc(C)c(-c2ccc(N3CC(N4CCN(C(=O)c5nccs5)CC4)CC3=O)cc2)s1 (stereo not drawn) [Example 189, 1-(4-(2,4-dimethyl-1,3-thiazol-5-yl)phenyl)-4-(4-(1,3-thiazol-2-ylcarbonyl)piperazin-1-yl)pyrrolidin-2-one] |  | 97 |
| CC(=O)Nc1cccc(-c2ccc(N3CC(N4CCN(C(=O)c5nccs5)CC4)CC3=O)cc2)c1 (stereo not drawn) [Example 191, N-(4′-(2-oxo-4-(4-(1,3-thiazol-2-ylcarbonyl)piperazin-1-yl)pyrrolidin-1-yl)biphenyl-3-yl)acetamide] |  | 96 |
| NS(=O)(=O)c1ccc(-c2ccc(N3CC(N4CCN(C(=O)c5nccs5)CC4)CC3=O)cc2)cc1 (stereo not drawn) [Example 193, 4′-(2-oxo-4-(4-(1,3-thiazol-2-ylcarbonyl)piperazin-1-yl)pyrrolidin-1-yl)biphenyl-4-sulfonamide] |  | 97 |
| NS(=O)(=O)c1cccc(-c2ccc(N3CC(N4CCN(C(=O)c5nccs5)CC4)CC3=O)cc2)c1 (stereo not drawn) [Example 194, 4′-(2-oxo-4-(4-(1,3-thiazol-2-ylcarbonyl)piperazin-1-yl)pyrrolidin-1-yl)biphenyl-3-sulfonamide] |  | 96 |
| O=C(c1nccs1)N1CCN(C2CC(=O)N(c3ccc(-c4ccncc4)cc3)C2)CC1 (stereo not drawn) [Example 196, 1-(4-(pyridin-4-yl)phenyl)-4-(4-(1,3-thiazol-2-ylcarbonyl)piperazin-1-yl)pyrrolidin-2-one] |  | 83 |
